pIC50: −log10 of the molar value. Read-outs that look alike come from different tables or passages of the source.
Target: JAK3 enzyme (Homo sapiens (Human), UniProt P52333)
Experiment: JAK Caliper Enzyme Assay at 4 μM or 1 mM ATP
Type: biochemical
[1] = read-out: JAK3 (4 μM ATP) IC50, 4 μM ATP
[2] = read-out: JAK3 (1 mM ATP) IC50, 1 mM ATP

JAK3 enzyme, sequence (P52333 whole entry, species assumed): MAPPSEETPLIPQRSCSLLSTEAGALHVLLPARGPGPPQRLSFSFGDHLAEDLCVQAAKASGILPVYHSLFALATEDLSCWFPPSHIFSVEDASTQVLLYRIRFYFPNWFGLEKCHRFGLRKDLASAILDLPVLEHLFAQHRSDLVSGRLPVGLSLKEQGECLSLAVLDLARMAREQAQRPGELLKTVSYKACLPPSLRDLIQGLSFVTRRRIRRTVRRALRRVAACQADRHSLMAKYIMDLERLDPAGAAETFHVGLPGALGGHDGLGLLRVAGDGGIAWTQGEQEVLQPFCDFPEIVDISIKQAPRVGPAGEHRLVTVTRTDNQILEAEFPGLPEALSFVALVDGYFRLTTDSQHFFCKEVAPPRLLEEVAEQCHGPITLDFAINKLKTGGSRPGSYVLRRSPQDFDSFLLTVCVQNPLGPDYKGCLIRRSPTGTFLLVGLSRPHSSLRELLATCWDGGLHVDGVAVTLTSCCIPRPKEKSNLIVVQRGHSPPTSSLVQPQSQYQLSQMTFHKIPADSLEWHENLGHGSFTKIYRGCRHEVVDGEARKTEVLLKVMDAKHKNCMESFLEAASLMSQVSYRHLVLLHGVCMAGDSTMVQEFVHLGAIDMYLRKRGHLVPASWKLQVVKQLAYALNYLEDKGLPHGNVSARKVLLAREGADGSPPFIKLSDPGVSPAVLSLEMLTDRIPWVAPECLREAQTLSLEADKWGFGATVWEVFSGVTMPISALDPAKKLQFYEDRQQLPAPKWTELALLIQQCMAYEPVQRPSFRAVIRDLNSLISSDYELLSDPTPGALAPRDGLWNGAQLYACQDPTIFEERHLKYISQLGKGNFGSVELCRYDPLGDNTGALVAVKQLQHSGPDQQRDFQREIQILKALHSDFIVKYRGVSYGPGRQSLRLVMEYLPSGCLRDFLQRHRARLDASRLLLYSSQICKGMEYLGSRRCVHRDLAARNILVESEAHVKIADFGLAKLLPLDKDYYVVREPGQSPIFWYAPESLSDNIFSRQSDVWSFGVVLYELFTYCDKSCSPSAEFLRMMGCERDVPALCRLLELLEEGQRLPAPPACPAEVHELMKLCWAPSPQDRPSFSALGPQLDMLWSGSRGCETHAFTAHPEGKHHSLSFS

SMILES	pIC50 [1]	pIC50 [2]
C=CC(=O)N1CCN(c2cnc3[nH]cc(C(=O)NC(C)C)c3n2)CC1(C)C [Example 293, 2-(4-acryloyl-3,3-dimethylpiperazin-1-yl)-N-(propan-2-yl)-5H-pyrrolo[2,3-b]pyrazine-7-carboxamide]	9.22	6.97
C=CC(=O)N1CCN(c2cnc3[nH]cc(C(=O)NC(C)C)c3n2)C[C@H]1C(C)C [Example 294, 2-[(3R)-4-acryloyl-3-(propan-2-yl)piperazin-1-yl]-N-(propan-2-yl)-5H-pyrrolo[2,3-b]pyrazine-7-carboxamide]	8.72	6.63
C=CC(=O)N1CCN(c2cnc3[nH]cc(C(=O)NC(C)C)c3n2)[C@@H](C)C1 [Example 297, 2-[(2S)-4-acryloyl-2-methylpiperazin-1-yl]-N-(propan-2-yl)-5H-pyrrolo[2,3-b]pyrazine-7-carboxamide]	8.82	6.74
C=CC(=O)N1[C@@H]2CC[C@H]1CN(c1cnc3[nH]cc(C(=O)NC(C)C)c3n1)C2 [Example 301, 2-[(1R,5S)-8-acryloyl-3,8-diazabicyclo[3.2.1]oct-3-yl]-N-(propan-2-yl)-5H-pyrrolo[2,3-b]pyrazine-7-carboxamide]	9.22	7.05
C=CC(=O)N1CC[C@@H](Nc2cnc3[nH]cc(C(=O)NC(C)C)c3n2)[C@H](OC)C1 [Example 305, 2-{[(3R,4R)-1-acryloyl-3-methoxypiperidin-4-yl]amino}-N-(propan-2-yl)-5H-pyrrolo[2,3-b]pyrazine-7-carboxamide]	9.10	7.19
C=CC(=O)N1[C@H](C)CN(c2cnc3[nH]cc(C(=O)NC(C)C)c3n2)C[C@@H]1C [Example 306, 2-[(3R,5S)-4-acryloyl-3,5-dimethylpiperazin-1-yl]-N-(propan-2-yl)-5H-pyrrolo[2,3-b]pyrazine-7-carboxamide]	8.41	6.49
C=CC(=O)N1CCN(c2cnc3[nH]cc(C(=O)NC(C)C)c3n2)[C@H](C)C1 [Example 307, 2-[(2R)-4-acryloyl-2-methylpiperazin-1-yl]-N-(propan-2-yl)-5H-pyrrolo[2,3-b]pyrazine-7-carboxamide]	8.96	6.89
C=CC(=O)N1CCN(c2cnc3[nH]cc(C(=O)NC(C)C)c3n2)[C@H](C2CC2)C1 [Example 309, 2-[(2R)-4-acryloyl-2-cyclopropylpiperazin-1-yl]-N-(propan-2-yl)-5H-pyrrolo[2,3-b]pyrazine-7-carboxamide]	8.18	6.09
C=CC(=O)N1CC2(C1)CN(c1cnc3[nH]cc(C(=O)NC(C)C)c3n1)C2 [Example 310, 2-(6-acryloyl-2,6-diazaspiro[3.3]hept-2-yl)-N-(propan-2-yl)-5H-pyrrolo[2,3-b]pyrazine-7-carboxamide]	6.93	< 5.00
C=CC(=O)N1CCN(c2cnc3[nH]cc(C(=O)NC(C)C)c3n2)C(C)(C)C1 [Example 312, 2-(4-acryloyl-2,2-dimethylpiperazin-1-yl)-N-(propan-2-yl)-5H-pyrrolo[2,3-b]pyrazine-7-carboxamide]	8.35	6.23
C=CC(=O)N1CCN(c2cnc3[nH]cc(C(=O)NC(C)C)c3n2)C2(CC2)C1 [Example 313, 2-(7-acryloyl-4,7-diazaspiro[2.5]oct-4-yl)-N-(propan-2-yl)-5H-pyrrolo[2,3-b]pyrazine-7-carboxamide]	8.85	6.74
C=CC(=O)N1CCN(c2cnc3[nH]cc(C(=O)NC(C)C)c3n2)[C@H](CC)C1 [Example 321, 2-[(2R)-4-acryloyl-2-ethylpiperazin-1-yl]-N-(propan-2-yl)-5H-pyrrolo[2,3-b]pyrazine-7-carboxamide]	9.05	6.84
C=CC(=O)N1CC2(C1)CN(c1cnc3[nH]cc(C(=O)NC(C)C)c3n1)C2C (centres unmarked) [Example 322, 2-(6-acryloyl-1-methyl-2,6-diazaspiro[3.3]hept-2-yl)-N-(propan-2-yl)-5H-pyrrolo[2,3-b]pyrazine-7-carboxamide]	7.53	5.46
C=CC(=O)N1CCN(c2cnc3[nH]cc(C(=O)NC(C)C)c3n2)[C@@H](C(C)C)C1 [Example 323, 2-[(2S)-4-acryloyl-2-(propan-2-yl)piperazin-1-yl]-N-(propan-2-yl)-5H-pyrrolo[2,3-b]pyrazine-7-carboxamide]	7.92	6.05
C=CC(=O)N1CC2COCC(C1)N2c1cnc2[nH]cc(C(=O)NC(C)C)c2n1 [Example 324, 2-(7-acryloyl-3-oxa-7,9-diazabicyclo[3.3.1]non-9-yl)-N-(propan-2-yl)-5H-pyrrolo[2,3-b]pyrazine-7-carboxamide]	7.43	5.51
C=CC(=O)N1CCN(c2cnc3[nH]cc(C(=O)NC(C)C)c3n2)[C@@H](CC)C1 [Example 325, 2-[(2S)-4-acryloyl-2-ethylpiperazin-1-yl]-N-(propan-2-yl)-5H-pyrrolo[2,3-b]pyrazine-7-carboxamide]	8.30	6.32
C=CC(=O)N1CCC(Oc2cnc3[nH]cc(C(=O)NC(C)C)c3n2)CC1 [Example 339, 2-((1-Acryloylpiperidin-4-yl)oxy)-N-isopropyl-5H-pyrrolo[2,3-b]pyrazine-7-carboxamide]	9.70	7.76
C#CCNC(=O)c1c[nH]c2ncc(NC3CCN(C(=O)C=C)CC3)nc12 [Example 343, 2-((1-Acryloylpiperidin-4-yl)amino)-N-(prop-2-yn-1-yl)-5H-pyrrolo[2,3-b]pyrazine-7-carboxamide]	10.00	8.47

More lines, in order of rising pIC50 [1], values ahead:

pIC50 [1]	pIC50 [2]	SMILES
8.30	6.18	C=CC(=O)N1CCN(c2cnc3[nH]cc(C(=O)NC(C)C)c3n2)[C@@H](C2CC2)C1 [Example 314, 2-[(2S)-4-acryloyl-2-cyclopropylpiperazin-1-yl]-N-(propan-2-yl)-5H-pyrrolo[2,3-b]pyrazine-7-carboxamide]
8.80	6.65	C=CC(=O)N1C[C@@H](C)N(c2cnc3[nH]cc(C(=O)NC(C)C)c3n2)[C@@H](C)C1 [Example 328, 2-[(2R,6S)-4-acryloyl-2,6-dimethylpiperazin-1-yl]-N-(propan-2-yl)-5H-pyrrolo[2,3-b]pyrazine-7-carboxamide]
8.92	7.31	C=CC(=O)N1CC[C@@H](Nc2cnc3[nH]cc(C(=O)NC(C)C)c3n2)[C@@H](OC)C1 [Example 302, 2-{[(3S,4R)-1-acryloyl-3-methoxypiperidin-4-yl]amino}-N-(propan-2-yl)-5H-pyrrolo[2,3-b]pyrazine-7-carboxamide]
8.92	6.70	C=CC(=O)N1CCN(c2cnc3[nH]cc(C(=O)NC(C)C)c3n2)C[C@H]1CC [Example 311, 2-[(3R)-4-acryloyl-3-ethylpiperazin-1-yl]-N-(propan-2-yl)-5H-pyrrolo[2,3-b]pyrazine-7-carboxamide]
8.96	7.05	C=CC(=O)N1CCN(c2cnc3[nH]cc(C(=O)NC(C)C)c3n2)C[C@@H]1C [Example 295, 2-[(3S)-4-acryloyl-3-methylpiperazin-1-yl]-N-(propan-2-yl)-5H-pyrrolo[2,3-b]pyrazine-7-carboxamide]
8.96	7.02	C=CC(=O)N1CC(Nc2cnc3[nH]ccc3n2)C1 [Example 337, 1-(3-((5H-Pyrrolo[2,3-b]pyrazin-2-yl)amino)azetidin-1-yl)prop-2-en-1-one]
9.15	7.25	C=CC(=O)N1CCN(c2cnc3[nH]cc(C(=O)NC(C)C)c3n2)C[C@@H]1CC [Example 299, 2-[(3S)-4-acryloyl-3-ethylpiperazin-1-yl]-N-(propan-2-yl)-5H-pyrrolo[2,3-b]pyrazine-7-carboxamide]
9.30	7.35	C=CC(=O)N1CC[C@H](Nc2cnc3[nH]cc(C(=O)NC(C)C)c3n2)[C@H](OC)C1 [Example 317, 2-{[(3R,4S)-1-acryloyl-3-methoxypiperidin-4-yl]amino}-N-(propan-2-yl)-5H-pyrrolo[2,3-b]pyrazine-7-carboxamide]
9.40	7.97	C=CC(=O)N1CC[C@@H](Nc2cnc3[nH]cc(C(=O)NC(C)C)c3n2)[C@@H](F)C1 [Example 320, 2-{[(3S,4R)-1-acryloyl-3-fluoropiperidin-4-yl]amino}-N-(propan-2-yl)-5H-pyrrolo[2,3-b]pyrazine-7-carboxamide]
9.52	8.15	C=CC(=O)N1CCC(Nc2cnc3[nH]cc(C(=O)N[C@H](C)CC)c3n2)CC1 [Example 289, 2-[(1-acryloylpiperidin-4-yl)amino]-N-[(2R)-butan-2-yl]-5H-pyrrolo[2,3-b]pyrazine-7-carboxamide]
9.52	7.67	C=CC(=O)N1CCC(C)(Nc2cnc3[nH]cc(C(=O)NC(C)C)c3n2)CC1 [Example 318, 2-[(1-acryloyl-4-methylpiperidin-4-yl)amino]-N-(propan-2-yl)-5H-pyrrolo[2,3-b]pyrazine-7-carboxamide]
9.70	8.11	C=CC(=O)N1CCC(Nc2cnc3[nH]cc(C(=O)NC(C)C4CC4)c3n2)CC1 (centres unmarked) [Example 288, 2-[(1-acryloylpiperidin-4-yl)amino]-N-(1-cyclopropylethyl)-5H-pyrrolo[2,3-b]pyrazine-7-carboxamide]
9.70	8.04	C=CC(=O)N1CC[C@@H](Nc2cnc3[nH]cc(C(=O)NC(C)C)c3n2)[C@H](F)C1 [Example 291, 2-{[(3R,4R)-1-acryloyl-3-fluoropiperidin-4-yl]amino}-N-(propan-2-yl)-5H-pyrrolo[2,3-b]pyrazine-7-carboxamide]

From patent publication US20250134869A1, “Pyrrolo[2,3-d]pyrimidinyl, Pyrrolo[2,3-b]pyrazinyl and Pyrrolo[2,3-d]pyridinyl Acryla-mides” (Pfizer Inc, priority 2021, published 2025)
